From US8916593B2, “Alkoxy-substituted 2-aminopyridines as ALK inhibitors” (Pfizer Inc., priority 2010, dated 2014)
Structures can show the parent of a compound that is named as a salt.

How the values were obtained:
[1] = target: T1, human recombinant wild-type ALK kinase domain (amino acids 1093-1411) (Homo sapiens, UniProt Q9UM73); assay: ALK enzyme assay 2 (microfluidic mobility shift assay); type: biochemical;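 further: kinase reaction run 1 h at room temperature, conversion quantified by electrophoretic separation of fluorescent peptide substrate from phosphorylated product, about 15-20% turnover without inhibitor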
T1 construct: ALK kinase domain (amino acids 1093-1411); made in house
Procedure: The reactions were incubated for 1 h at room temperature, stopped by the addition of 0.1 M EDTA, pH 8, and the extent of reactions (˜15-20% conversion with no inhibitor) was determined after electrophoretic separation of the fluorescently labeled peptide substrate and phosphorylated product on an LabChip EZ Reader II (Caliper Life Sciences, Hopkinton, Mass.).

[2] = target: EML4-ALK wt v1 in NIH-3T3 cells (Homo sapiens, UniProt Q9UM73)
[3] = target: T2, ALK enzyme (Homo sapiens, UniProt Q9UM73); assay: ALK enzymatic activity assay 1; type: biochemical
T2 construct: purchased Invitrogen PV4185
Procedure: ALK Enzymatic Activity Assay 1
Compounds were added at a final concentration of 1% DMSO in half-log dilutions, starting at 20 μM final concentration. The reactions were initiated by the addition of 10 μL of peptide/ATP mix to 10 μL enzyme and 2 μL of compound in 384-well plate. […] On the 12-sipper chip, substrate and phosphorylated product were separated with an upstream voltage of −2650 V, a downstream voltage of −500 V, and a screen pressure of −1.5 psi. The relative peak heights of substrate and product were measured and ratios were calculated using HTS Well Analyzer Software version 5.2.43 from the manufacturer.

[4] = target: T3, cMet enzyme (Homo sapiens, UniProt P08581); assay: cMet enzymatic activity assay; type: biochemical; conditions: purified cMet enzyme 7.5 nM, ATP 17 μM (Km)
T3 construct: RTC Lot#032006
Procedure: cMet Enzymatic Activity Assay
Compounds were added at a final concentration of 2% DMSO in half-log dilutions, starting at 20 μM final concentration. The reactions were initiated by addition of 10 μL of peptide/ATP mix to 10 μL enzyme and 5 μL of compound in 384-well plate. […] Substrate and phosphorylated product were separated with an upstream voltage of −2650 V, a downstream voltage of −500V, and a screen pressure of −1.5 psi. The relative peak heights of substrate and product were measured and ratios were calculated using HTS Well Analyzer Software version 5.2.43 from the manufacturer.

T2 sequence (Q9UM73 19-1620): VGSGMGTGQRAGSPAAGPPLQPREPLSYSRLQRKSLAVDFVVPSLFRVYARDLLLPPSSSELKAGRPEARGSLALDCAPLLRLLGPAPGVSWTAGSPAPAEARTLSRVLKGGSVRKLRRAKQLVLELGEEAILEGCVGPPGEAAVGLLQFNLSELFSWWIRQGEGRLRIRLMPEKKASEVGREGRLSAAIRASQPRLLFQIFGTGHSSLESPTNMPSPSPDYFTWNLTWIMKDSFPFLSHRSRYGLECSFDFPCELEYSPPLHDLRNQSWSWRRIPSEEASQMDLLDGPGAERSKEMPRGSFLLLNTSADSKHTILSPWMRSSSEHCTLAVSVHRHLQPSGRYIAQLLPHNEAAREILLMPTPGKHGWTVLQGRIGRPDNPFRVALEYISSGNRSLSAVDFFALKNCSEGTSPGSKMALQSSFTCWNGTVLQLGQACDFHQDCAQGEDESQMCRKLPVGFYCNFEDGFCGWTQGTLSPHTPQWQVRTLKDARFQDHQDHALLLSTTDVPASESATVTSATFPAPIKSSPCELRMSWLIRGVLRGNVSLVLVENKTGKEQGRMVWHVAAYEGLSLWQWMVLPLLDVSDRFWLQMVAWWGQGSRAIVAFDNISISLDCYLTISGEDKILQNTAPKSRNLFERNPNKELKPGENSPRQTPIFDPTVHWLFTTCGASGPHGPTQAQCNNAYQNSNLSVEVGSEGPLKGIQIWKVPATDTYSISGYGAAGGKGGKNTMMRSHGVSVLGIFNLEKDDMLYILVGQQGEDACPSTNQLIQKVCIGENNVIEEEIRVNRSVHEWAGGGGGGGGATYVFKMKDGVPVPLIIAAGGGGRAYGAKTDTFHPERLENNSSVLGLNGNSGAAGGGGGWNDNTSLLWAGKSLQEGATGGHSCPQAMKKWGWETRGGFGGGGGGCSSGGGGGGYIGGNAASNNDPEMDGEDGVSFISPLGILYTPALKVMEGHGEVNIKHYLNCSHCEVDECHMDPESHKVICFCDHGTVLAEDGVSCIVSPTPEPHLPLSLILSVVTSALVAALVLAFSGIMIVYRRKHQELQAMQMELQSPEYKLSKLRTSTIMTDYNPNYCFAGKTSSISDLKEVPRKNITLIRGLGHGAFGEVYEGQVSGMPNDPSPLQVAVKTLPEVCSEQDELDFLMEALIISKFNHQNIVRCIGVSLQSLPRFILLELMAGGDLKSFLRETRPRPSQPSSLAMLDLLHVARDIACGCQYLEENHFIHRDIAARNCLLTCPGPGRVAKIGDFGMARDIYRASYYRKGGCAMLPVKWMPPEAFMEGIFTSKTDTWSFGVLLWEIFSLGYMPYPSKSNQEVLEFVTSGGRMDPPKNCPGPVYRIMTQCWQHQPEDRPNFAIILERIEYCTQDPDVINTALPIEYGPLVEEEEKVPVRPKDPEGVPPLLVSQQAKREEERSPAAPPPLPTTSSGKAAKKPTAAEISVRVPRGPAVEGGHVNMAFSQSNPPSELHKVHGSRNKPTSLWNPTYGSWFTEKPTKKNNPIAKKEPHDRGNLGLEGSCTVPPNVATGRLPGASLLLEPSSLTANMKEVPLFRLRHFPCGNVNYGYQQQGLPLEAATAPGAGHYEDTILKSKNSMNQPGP
EML4-ALK wt v1 in NIH-3T3 cells, sequence (Q9UM73 with tags, fused parts or gaps): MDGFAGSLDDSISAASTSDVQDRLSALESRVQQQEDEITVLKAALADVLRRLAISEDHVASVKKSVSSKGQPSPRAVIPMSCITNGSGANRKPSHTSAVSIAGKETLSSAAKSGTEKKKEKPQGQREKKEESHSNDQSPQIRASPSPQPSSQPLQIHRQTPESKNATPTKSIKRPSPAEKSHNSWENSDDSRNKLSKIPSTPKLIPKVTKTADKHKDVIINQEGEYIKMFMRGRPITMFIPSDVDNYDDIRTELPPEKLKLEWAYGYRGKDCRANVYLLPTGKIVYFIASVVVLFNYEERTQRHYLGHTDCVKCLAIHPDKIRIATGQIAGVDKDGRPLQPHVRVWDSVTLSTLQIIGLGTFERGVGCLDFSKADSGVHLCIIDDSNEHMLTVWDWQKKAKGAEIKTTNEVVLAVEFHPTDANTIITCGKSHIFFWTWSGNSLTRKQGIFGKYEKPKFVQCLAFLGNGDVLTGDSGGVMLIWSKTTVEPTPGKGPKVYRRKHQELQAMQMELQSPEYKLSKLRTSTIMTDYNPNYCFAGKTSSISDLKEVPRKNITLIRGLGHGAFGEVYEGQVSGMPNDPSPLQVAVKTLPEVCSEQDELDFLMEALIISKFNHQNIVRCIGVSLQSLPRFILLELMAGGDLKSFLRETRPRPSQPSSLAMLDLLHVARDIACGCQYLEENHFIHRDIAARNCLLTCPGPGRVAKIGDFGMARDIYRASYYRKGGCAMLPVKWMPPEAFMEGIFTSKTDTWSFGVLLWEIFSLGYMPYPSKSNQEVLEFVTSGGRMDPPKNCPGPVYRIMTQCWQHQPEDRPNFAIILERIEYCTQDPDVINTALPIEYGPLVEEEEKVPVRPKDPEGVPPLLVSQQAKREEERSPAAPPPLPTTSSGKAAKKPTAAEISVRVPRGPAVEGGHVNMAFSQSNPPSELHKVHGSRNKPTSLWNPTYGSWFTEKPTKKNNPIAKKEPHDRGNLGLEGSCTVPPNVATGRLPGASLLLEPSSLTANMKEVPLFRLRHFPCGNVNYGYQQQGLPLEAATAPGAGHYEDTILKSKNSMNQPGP
T1 sequence (Q9UM73 1093-1411): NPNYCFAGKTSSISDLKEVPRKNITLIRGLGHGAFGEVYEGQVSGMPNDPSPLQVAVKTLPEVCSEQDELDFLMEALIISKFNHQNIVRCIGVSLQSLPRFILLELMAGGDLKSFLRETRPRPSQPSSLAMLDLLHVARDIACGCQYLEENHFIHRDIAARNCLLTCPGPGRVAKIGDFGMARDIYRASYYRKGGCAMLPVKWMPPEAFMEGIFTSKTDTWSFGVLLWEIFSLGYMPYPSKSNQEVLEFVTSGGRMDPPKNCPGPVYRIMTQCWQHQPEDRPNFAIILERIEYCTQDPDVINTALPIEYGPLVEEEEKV
T3 sequence (P08581 25-1390): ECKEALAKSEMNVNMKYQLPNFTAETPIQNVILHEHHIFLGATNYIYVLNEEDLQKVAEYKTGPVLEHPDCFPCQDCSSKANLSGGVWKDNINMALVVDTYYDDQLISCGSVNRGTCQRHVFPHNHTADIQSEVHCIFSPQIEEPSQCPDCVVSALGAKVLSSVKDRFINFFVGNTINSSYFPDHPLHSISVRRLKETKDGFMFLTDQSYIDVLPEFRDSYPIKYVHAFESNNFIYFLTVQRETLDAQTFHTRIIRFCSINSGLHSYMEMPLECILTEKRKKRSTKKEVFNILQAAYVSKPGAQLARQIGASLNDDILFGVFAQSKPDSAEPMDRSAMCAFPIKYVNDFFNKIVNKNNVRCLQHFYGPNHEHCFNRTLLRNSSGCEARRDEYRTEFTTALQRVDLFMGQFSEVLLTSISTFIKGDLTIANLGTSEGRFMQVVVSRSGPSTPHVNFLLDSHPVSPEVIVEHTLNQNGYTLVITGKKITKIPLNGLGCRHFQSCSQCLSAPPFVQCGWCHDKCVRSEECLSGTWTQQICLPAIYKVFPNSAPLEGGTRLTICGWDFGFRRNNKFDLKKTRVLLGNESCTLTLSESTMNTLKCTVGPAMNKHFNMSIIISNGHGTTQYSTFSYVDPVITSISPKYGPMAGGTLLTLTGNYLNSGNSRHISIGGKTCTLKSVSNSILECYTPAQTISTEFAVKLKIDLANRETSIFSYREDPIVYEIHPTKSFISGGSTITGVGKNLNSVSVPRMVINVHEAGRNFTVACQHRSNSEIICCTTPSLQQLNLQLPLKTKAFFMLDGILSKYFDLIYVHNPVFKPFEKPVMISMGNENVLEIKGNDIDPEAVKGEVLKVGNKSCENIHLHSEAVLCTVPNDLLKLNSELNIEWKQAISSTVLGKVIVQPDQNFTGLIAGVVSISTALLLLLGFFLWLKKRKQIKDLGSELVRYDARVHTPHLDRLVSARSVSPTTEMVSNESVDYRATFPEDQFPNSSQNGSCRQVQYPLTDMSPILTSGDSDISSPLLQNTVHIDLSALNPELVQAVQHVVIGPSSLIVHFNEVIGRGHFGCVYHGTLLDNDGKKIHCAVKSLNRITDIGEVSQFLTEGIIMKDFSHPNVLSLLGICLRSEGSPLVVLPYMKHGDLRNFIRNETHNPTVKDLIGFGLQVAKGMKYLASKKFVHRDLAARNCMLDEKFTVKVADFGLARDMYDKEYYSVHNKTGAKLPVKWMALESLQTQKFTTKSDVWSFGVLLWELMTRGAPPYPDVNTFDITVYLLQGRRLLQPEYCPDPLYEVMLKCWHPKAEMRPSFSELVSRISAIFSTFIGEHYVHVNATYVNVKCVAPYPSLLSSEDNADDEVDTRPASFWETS

| Structure (SMILES) | Ki [1] | IC50 [2] | IC50 [3] | IC50 [4] |
| --- | --- | --- | --- | --- |
| CC(Oc1cc(-c2ccnn2C)cnc1N)c1cc(F)ccc1C#N (stereo not drawn) [Example 36, 2-(1-{[2-amino-5-(1-methyl-1H-pyrazol-5-yl)pyridin-3-yl]oxy}ethyl)-4-fluorobenzonitrile monohydrochloride] | 22 nM | 862 nM | 120 nM | > 15800 nM |
| COc1ccc(F)cc1C(C)Oc1cc(-c2cnnn2CCO)cnc1N (stereo not drawn) [Example 2, 2-(5-{6-amino-5-[1-(5-fluoro-2-methoxyphenyl)ethoxy]-pyridin-3-yl}-1H-1,2,3-triazol-1-yl)ethanol] | 220 nM | > 1000 nM | 135 nM | > 20000 nM |
| COc1ccc(F)cc1[C@@H](C)Oc1cc(-c2cccnc2CO)cnc1N [Example 27, {6′-amino-5′-[(1R)-1-(5-fluoro-2-methoxyphenyl)-ethoxy]-3,3′-bipyridin-2-yl}methanol] | 3.1 nM | 138 nM | 47.3 nM | > 15400 nM |
| COc1ncc(F)cc1C(C)Oc1cc(-c2ccnn2C)cnc1N (stereo not drawn) [Example 33, 3-[1-(5-fluoro-2-methoxypyridin-3-yl)ethoxy]-5-(1-methyl-1H-pyrazol-5-yl)pyridin-2-amine monohydrochloride] | 4.8 nM | 380 nM | 89.2 nM | > 20000 nM |
| COc1ccc(F)cc1C(C)Oc1cc(-c2cccnc2OCCO)cnc1N (stereo not drawn) [Example 19, 2-{6′-Amino-5′-[1-(5-fluoro-2-methoxy-phenyl)-ethoxy]-[3,3]bipyridinyl-2-yloxy}-ethanol] | 1.05 nM | 53.5 nM | 78.7 nM | > 19700 nM |
| COc1ccc(F)cc1C(C)Oc1cc(-c2cccn(C)c2=O)cnc1N (stereo not drawn) [Example 15, 6′-amino-5′-[1-(5-fluoro-2-methoxyphenyl)ethoxy]-1-methyl-3,3′-bipyridin-2(1H)-one] | 16 nM | 904 nM | 177 nM | > 20000 nM |
| COc1ccc(F)cc1[C@@H](C)Oc1cc(-c2c(C)nn(CC(O)CO)c2C)cnc1N (stereo partly drawn) [Example 26, 3-(4-{6-amino-5-[(1R)-1-(5-fluoro-2-methoxyphenyl)-ethoxy]pyridin-3-yl}-3,5-dimethyl-1H-pyrazol-1-yl)propane-1,2-diol] | < 0.313 nM | 4.54 nM | 24.1 nM | 4300 nM |
| C=Cn1nnc(C)c1-c1cnc(N)c(OC(C)c2cc(F)ccc2OC)c1 (stereo not drawn) [Example 1, 3-[1-(5-Fluoro-2-methoxyphenyl)ethoxy]-5-(4-methyl-1-vinyl-1H-1,2,3-triazol-5-yl)pyridin-2-amine] | 2.9 nM | 144 nM | 61.4 nM | > 18800 nM |
| COc1ccc(F)cc1C(C)Oc1cc(-c2cc(Cl)nnc2N)cnc1N (stereo not drawn) [Example 17, 4-{6-amino-5-[1-(5-fluoro-2-methoxyphenyl)ethoxy]-pyridin-3-yl}-6-chloropyridazin-3-amine] | 11 nM | 672 nM | 133 nM | 13200 nM |
| COc1ncc(F)cc1[C@@H](C)Oc1cc(-c2ccnn2C)cnc1N [Example 34, 3-[(1R)-1-(5-fluoro-2-methoxypyridin-3-yl)ethoxy]-5-(1-methyl-1H-pyrazol-5-yl)pyridin-2-amine] | 3.8 nM | 302 nM | 71.1 nM | > 17800 nM |
| COc1ccc(F)cc1C(C)Oc1cc(-c2cncc(S(C)(=O)=O)c2)cnc1N (stereo not drawn) [Example 4, 5-[1-(5-fluoro-2-methoxyphenyl)ethoxy]-5′-(methylsulfonyl)-3,3′-bipyridin-6-amine] | 1.93 nM | 72.4 nM | 51.7 nM | 7610 nM |

Next, values leading:

| Ki [1] | IC50 [2] | IC50 [3] | IC50 [4] | Structure (SMILES) |
| --- | --- | --- | --- | --- |
| 13 nM | 631 nM | 126 nM | > 20000 nM | CC(Oc1nc(-c2cn(C)cn2)cnc1N)c1cc(F)ccc1Cl (stereo not drawn) [Example 59, 3-[1-(2-chloro-5-fluorophenyl)ethoxy]-5-(1-methyl-1H-imidazol-4-yl)pyrazin-2-amine] |
| 6.9 nM | 411 nM | 57 nM | 6480 nM | CC(Oc1cc(-c2ccnn2C)cnc1N)c1cc(F)ccc1C#N (single isomer, unassigned) [Example 44] |
| 0.739 nM | 58.4 nM | 50.2 nM | 5070 nM | COc1ccncc1-c1cnc(N)c(OC(C)c2cc(F)ccc2OC)c1 (stereo not drawn) [Example 50, 5-[1-(5-fluoro-2-methoxyphenyl)-ethoxy]-4′-methoxy-3,3′-bipyridin-6-amine] |
| 5.4 nM | 245 nM | 58.7 nM | > 20000 nM | COc1ccc(F)cc1C(C)Oc1nc(-c2cn(C)c(C)n2)cnc1N (stereo not drawn) [Example 57, 5-(1,2-dimethyl-1H-imidazol-4-yl)-3-[1-(5-fluoro-2-methoxyphenyl)ethoxy]pyrazin-2-amine] |
| 61 nM | 1450 nM | 45.2 nM | 7870 nM | CC(Oc1cc(-c2ccnn2C)cnc1N)c1cc(F)cc2cccnc12 (stereo not drawn) [Example 51, 3-[1-(6-fluoroquinolin-8-yl)ethoxy]-5-(1-methyl-1H-pyrazol-5-yl)pyridin-2-amine] |
| 43 nM | 1760 nM | 87.6 nM | > 20000 nM | CC(Oc1cc(-c2ccnn2C)nnc1N)c1cc(F)ccc1-n1cccn1 (stereo not drawn) [Example 55, 4-{1-[5-fluoro-2-(1H-pyrazol-1-yl)phenyl]ethoxy}-6-(1-methyl-1H-pyrazol-5-yl)pyridazin-3-amine] |
| 4.52 nM | 191 nM | 50.5 nM | 2810 nM | CC(Oc1cc(-c2ccnn2C)cnc1N)c1cc(F)ccc1-c1ncco1 (stereo not drawn) [Example 62, 3-{1-[5-fluoro-2-(1,3-oxazol-2-yl)phenyl]ethoxy}-5-(1-methyl-1H-pyrazol-5-yl)pyridin-2-amine] |
| 6.4 nM | 555 nM | 67.3 nM | > 20000 nM | COc1ccc(F)cc1C(C)Oc1nc(-c2nccn2C)cnc1N (stereo not drawn) [Example 60, 3-[1-(5-fluoro-2-methoxyphenyl)ethoxy]-5-(1-methyl-1H-imidazol-2-yl)pyrazin-2-amine] |
| < 0.2 nM | 45.7 nM | 70.5 nM | 2850 nM | Cc1n[nH]cc1-c1cnc(N)c(OC(C)c2cc(F)ccc2-n2cccn2)c1 (stereo not drawn) [Example 47, 3-{1-[5-fluoro-2-(1H-pyrazol-1-yl)phenyl]-ethoxy}-5-(3-methyl-1H-pyrazol-4-yl)pyridin-2-amine] |
| 1.55 nM | 147 nM | 70.3 nM | 8090 nM | CC(Oc1cc(-c2ccnn2C)cnc1N)c1cc(F)ccc1-n1cccn1 (stereo not drawn) [Example 37, 3-{1-[5-fluoro-2-(1H-pyrazol-1-yl)phenyl]-ethoxy}-5-(1-methyl-1H-pyrazol-5-yl)pyridin-2-amine] |
